Measured values taken from patent US20260285850A1, “SUBSTITUTED OXAZOLIDINONES AND IMIDAZOLINONES AS HERBICIDES” (FMC CORPORATION, priority 2023, published 2026).

Legend:
Format in all cases: in vivo
[1] = test system: galium (catchweed bedstraw, Galium aparine); test: Test A postemergence application, visual injury rating 0-100
How it was run: (§1)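 Plants in a loam and sand soil blend were treated with each test chemical, in a non-phytotoxic solvent system including surfactant, either sprayed on seeded soil before emergence or applied after emergence at the one- to two-leaf stage. Ten days later in the greenhouse, plants were compared with untreated controls and visually rated from 0 (no effect) to 100 (complete control).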

[2] = test system: palmer (palmer amaranth, palmer pigweed, Amaranthus palmeri); test: as above
How it was run: as §1

soybean (Glycine max) [3] = test: as above
How it was run: as §1

kochia (Bassia scoparia) [4] = test: as above
How it was run: as §1

[5] = test system: barnyardgrass (Echinochloa crus-galli); test: as above
How it was run: as §1

[6] = test system: ragweed (common ragweed, Ambrosia artemisiifolia); test: as above
How it was run: as §1

[7] = test system: ryegrass, Italian (italian ryegrass, Lolium multiflorum); test: as above
How it was run: as §1

[8] = test system: wheat (Triticum aestivum); test: as above
How it was run: as §1

[9] = test system: horseweed (Erigeron canadensis); test: as above
How it was run: as §1

corn (Zea mays) [10] = test: as above
How it was run: as §1

[11] = test system: blackgrass (Alopecurus myosuroides); test: as above
How it was run: as §1

[12] = test system: oat, wild (wild oat, Avena fatua); test: as above
How it was run: as §1

[13] = test system: green foxtail (Setaria viridis); test: as above
How it was run: as §1

[14] = test system: palmer (palmer amaranth, palmer pigweed, Amaranthus palmeri); test: Test A preemergence soil spray, visual injury rating 0-100; conditions: 10 days
How it was run: as §1

soybean (Glycine max) [15] = test: as above; conditions: 10 days
How it was run: as §1

kochia (Bassia scoparia) [16] = test: as above; conditions: 62 g ai/ha, 10 days, 0 = no effect, 100 = complete control
How it was run: as §1

[17] = test system: barnyardgrass (Echinochloa crus-galli); test: as above; conditions: 10 days
How it was run: as §1

[18] = test system: ragweed (common ragweed, Ambrosia artemisiifolia); test: as above; conditions: 10 days
How it was run: as §1

[19] = test system: ryegrass, Italian (italian ryegrass, Lolium multiflorum); test: as above; conditions: 10 days
How it was run: as §1

[20] = test system: wheat (Triticum aestivum); test: as above; conditions: 10 days
How it was run: as §1

corn (Zea mays) [21] = test: as above; conditions: 10 days
How it was run: as §1

[22] = test system: blackgrass (Alopecurus myosuroides); test: as above; conditions: 10 days
How it was run: as §1

[23] = test system: oat, wild (wild oat, Avena fatua); test: as above; conditions: 10 days
How it was run: as §1

[24] = test system: green foxtail (Setaria viridis); test: as above; conditions: 10 days
How it was run: as §1

rice (Oryza sativa) = test: Test B flooded paddy test, visual plant response rating 0-100; conditions: 250 g ai/ha, Flood, applied to paddy water, evaluated after 13 days
How it was run: (§2)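 Greenhouse, 13 d. Seedlings at 2-leaf stage, pots flooded to 3 cm, compound delivered into floodwater, water level held constant. Evaluated visually relative to controls.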

[25] = test system: sedge, umbrella (small-flower umbrella sedge, Cyperus difformis); test: as above; conditions: 250 g ai/ha, Flood, applied to paddy water, evaluated after 13 days
How it was run: as §2

[26] = test system: barnyardgrass (Echinochloa crusgalli); test: as above; conditions: 250 g ai/ha, Flood, applied to paddy water, evaluated after 13 days
How it was run: as §2

[27] = test system: ducksalad (Heteranthera limosa); test: as above; conditions: 250 g ai/ha, Flood, applied to paddy water, evaluated after 13 days
How it was run: as §2

[28] = 62 g ai/ha, postemergence, 10 days, 0 = no effect, 100 = complete control
[29] = Postemergence, 16 g ai/ha, greenhouse 10 days, 0 no effect, 100 complete control
[30] = 62 g ai/ha, 0 = no effect, 100 = complete control

## CCOC(=O)C1C=CC(NC(=O)C2(C)CN(c3cc(C)cc(C)c3)C(=O)O2)C1 (stereo not drawn) [Compound 116]
[1]; [28]
  Galium plant response rating (0-100): 70
[1]; [29]
  Galium plant response rating (0 to 100 scale): 60
[2]; [28]
  Pigweed, Palmer plant response rating (0-100): 40
[2]; [29]
  Pigweed, Palmer plant response rating (0 to 100 scale): 0
Soybean (Glycine max) [3]; [28]
  Soybean plant response rating (0-100): 60
Soybean (Glycine max) [3]; [29]
  Soybean plant response rating (0 to 100 scale): 50
Kochia (Bassia scoparia) [4]; [28]
  Kochia plant response rating (0-100): 60
Kochia (Bassia scoparia) [4]; [29]
  Kochia plant response rating (0 to 100 scale): 20
[5]; [28]
  Barnyardgrass plant response rating (0-100): 100
[5]; [29]
  Barnyardgrass plant response rating (0 to 100 scale): 70
[6]; [28]
  Ragweed plant response rating (0-100): 30
[6]; [29]
  Ragweed plant response rating (0 to 100 scale): 0
[7]; [28]
  Ryegrass, Italian plant response rating (0-100): 70
[7]; [29]
  Ryegrass, Italian plant response rating (0 to 100 scale): 20
[8]; [28]
  Wheat plant response rating (0-100): 90
[8]; [29]
  Wheat plant response rating (0 to 100 scale): 40
[9]; [28]
  Horseweed plant response rating (0-100): 0
[9]; [29]
  Horseweed plant response rating (0 to 100 scale): 0
Corn (Zea mays) [10]; [28]
  Corn plant response rating (0-100): 100
Corn (Zea mays) [10]; [29]
  Corn plant response rating (0 to 100 scale): 40
[11]; [28]
  Blackgrass plant response rating (0-100): 90
[11]; [29]
  Blackgrass plant response rating (0 to 100 scale): 80
[12]; [28]
  Oat, Wild plant response rating (0-100): 90
[12]; [29]
  Oat, Wild plant response rating (0 to 100 scale): 60
[13]; [28]
  Foxtail, Green plant response rating (0-100): 30
[13]; [29]
  Foxtail, Green plant response rating (0 to 100 scale): 10
[14]; 16 g ai/ha, 0 to 100 scale
  Pigweed, Palmer plant response rating: 10
[14]; [30]
  Pigweed, Palmer plant response rating (0-100): 100
Soybean (Glycine max) [15]; 16 g ai/ha, 0 to 100 scale
  Soybean plant response rating: 0
Soybean (Glycine max) [15]; [30]
  Soybean plant response rating (0-100): 0
Kochia (Bassia scoparia) [16]
  Kochia plant response rating (0-100): 100
[17]; 16 g ai/ha, 0 to 100 scale
  Barnyardgrass plant response rating: 30
[17]; [30]
  Barnyardgrass plant response rating (0-100): 100
[18]; 16 g ai/ha, 0 to 100 scale
  Ragweed plant response rating: 0
[18]; [30]
  Ragweed plant response rating (0-100): 0
[19]; 16 g ai/ha, 0 to 100 scale
  Ryegrass, Italian plant response rating: 0
[19]; [30]
  Ryegrass, Italian plant response rating (0-100): 70
[20]; 16 g ai/ha, 0 to 100 scale
  Wheat plant response rating: 0
[20]; [30]
  Wheat plant response rating (0-100): 30
Corn (Zea mays) [21]; 16 g ai/ha, 0 to 100 scale
  Corn plant response rating: 0
Corn (Zea mays) [21]; [30]
  Corn plant response rating (0-100): 10
[22]; 16 g ai/ha, 0 to 100 scale
  Blackgrass plant response rating: 0
[22]; [30]
  Blackgrass plant response rating (0-100): 70
[23]; 16 g ai/ha, 0 to 100 scale
  Oat, Wild plant response rating: 0
[23]; [30]
  Oat, Wild plant response rating (0-100): 50
[24]; 16 g ai/ha, 0 to 100 scale
  Foxtail, Green plant response rating: 0
[24]; [30]
  Foxtail, Green plant response rating (0-100): 80
Rice (Oryza sativa)
  Plant response rating, Rice (0 to 100 scale, 0 is no effect and 100 is complete control): 50
[25]
  Plant response rating, Sedge, Umbrella (0 to 100 scale, 0 is no effect and 100 is complete control): 55
[26]
  Plant response rating, Barnyardgrass (0 to 100 scale, 0 is no effect and 100 is complete control): 75
[27]
  Plant response rating, Ducksalad (0 to 100 scale, 0 is no effect and 100 is complete control): 45
